Measured values taken from patent US20220288004A1, “TREATMENT AND PREVENTION OF AGING RELATED-DISEASE AND/OR AGING BY THE INHIBITION OF SPHINGOLIPIDS” (ECOLE POLYTECHNIQUE FEDERALE DE LAUSANNE (EPFL), priority 2019, published 2022).
“Also recorded” adds a separate entry of the source.

Experiments:
Assay type in all cases: in vivo, mouse
aged C57Bl/6JRj mice [1] = experiment: Oral glucose tolerance test in aged mice; conditions: aged chow-fed myriocin treated mice
Text: Frailty is associated with multimorbidity, including diabetes.

aged C57Bl/6JRj mice [2] = experiment: Body composition, muscle mass and TA muscle histology in aged mice
Protocol: To examine whether a causal relationship could underlie the correlation between SphPC1 and muscle mass and function, it was tested whether inhibition of sphingolipid de novo biosynthesis pathway could protect against age-related muscle dysfunction. Aged (18-month-old) C57Bl/6JRj mice were treated for 5 months on chow diet with myriocin, a specific inhibitor of SPT, the first and rate-limiting enzyme of the sphingolipid de novo synthesis pathway, and whose expression in skeletal muscle was negatively correlated with muscular fitness in BXDs.
Animals. Young (2-month-old) and aged (18-month-old) C57Bl/6JRj mice were purchased from Janvier Labs. EchoMRI measuring the fat and lean body mass, were measured before and after the treatment. The dose of myriocin was 0.4 mg/kg/3 times a week. Myriocin (Enzo Life Sciences, Farmingdale, N.Y.) was first dissolved in DMSO which was then mixed with PBS so that each mouse received 1.5 μL DMSO per injection. Animals were fed on a standard chow diet. All animals were housed in micro-isolator cages in a room illuminated from 7:00 AM to 7:00 PM with ad libitum access to diet and water. All the animal experiments are authorized by animal license 2890.1 and 3341 in Canton of Vaud, Switzerland.
Histology. TA muscles were harvested from anesthetized mice, and immediately embedded in Thermo Scientific™ Shandon™ Cryomatrix™ and frozen in isopentane, cooled in liquid nitrogen, for 1 min before being transferred to dry ice and stored at −80° C. 8 μm cryosections were incubated in 4% PFA for 15 min, washed three times for 10 min with PBS, incubated for antigen retrieval in pH 6.0 citrate buffer for 10 min at 95° C. […] Microscopy images of fluorescence from muscle fibers were analyzed using the ImageJ software. Centralized nuclei percent, minimal Feret diameter and cross-sectional area in TA muscles were determined using the ImageJ software quantification of laminin, dystrophin, and DAPI-stained muscle images from VS120-S6-W slides scanner (Olympus). […] The mean cross-sectional area of muscle fibers was calculated as the average cross-sectional area of 2,000 fibers per from sample. 7-8 mouse samples per condition were used for histological quantification of donor mice. The eMyHC quantification is expressed as proportion of eMyHC positive signal over total TA cross sectional area. Following MuSC injection in CTX injected recipient mice, inflammation representing the regenerative stage of muscle was quantified by ImageJ software as proportion of inflammatory area over total area of the TA muscle cross section. The PAX7-positive cells were quantified as the average number of cells per field of more than 30 randomly chosen fields from a mouse TA. For each quantification, 3 or more mice were used.

aged C57Bl/6JRj mice [3] = experiment: Transplantation of MuSCs from myriocin treated donors into cardiotoxin-injured aged C57Bl/6JRj recipients
Text: Decline in tissue regenerative potential is a major hallmark of mammalian aging, including skeletal muscle. It was next asked the question whether myriocin treatment induces functional improvement of MuSCs, boosting their regenerative capacity. MuSCs from aged mice treated or untreated with myriocin for 5 months were isolated, and transplanted into tibialis anterior (TA) muscles of recipient mice. The recipient mice were either aged (20-month-old) C57Bl/6JRj or aged (1-year-old) mdx mice, a mouse model of Duchenne muscular dystrophy lacking dystrophin protein (FIG. 4a). Before MuSC transplantation, injury was induced by cardiotoxin injection to TA of all recipient mice. […] At both 7 and 14 days after transplantation the inflammatory area was also smaller (FIG. 12a-b) in mdx recipients of MuSCs isolated from myriocin treated mice. […] Thus, transplantation of MuSCs derived from myriocin treated donors induce major morphological improvements following cardiotoxin-induced muscle injury.
To test whether the functional improvement of MuSCs upon myriocin treatment also translates into better muscle function of recipient mice, tests of muscle function were performed before and 7 days after MuSC transplantation.
Endurance running test. The exercise regimen on a treadmill commenced at a speed of 9 cm/s. As the mice were aged, an inclination of 0 degrees was used. Mice were considered to be exhausted, and removed from the treadmill if they received 7 or more shocks (0.2 mA) per minute for two consecutive minutes. The distance traveled and time before exhaustion were registered as maximal running distance and time.
Grip strength. Muscle strength was assessed by grip strength test. The grip strength of each mouse was measured on a pulldown grid assembly connected to a grip strength meter (Columbus Instruments). The mouse was drawn along a straight line parallel to the grip, providing peak force. The experiment was repeated three times, and the highest value was included in the analysis.
Rotarod test. The rotarod test measures muscle strength, coordination, and endurance. Mice were left undisturbed in the room for 30 min. The speed of the rotating cylinder (rotarod) increased from 0 to 40 rpm in 5 min. Each mouse had 3 trials per day for 3 consecutive days. The latency and speed the mouse reached it passive rotation or fall from the rotor was recorded, and the latency and speed of the best trial of the second day is presented.
Cardiotoxin-induced muscle damage and MuSC transplantation. MuSCs were transplanted from donor mice to recipient mice. The donor mice were aged male C57Bl/6JRj mice, whose treatment with myriocin was started at the age of 18 months. The recipient mice were either aged (18-month-old) male C57Bl/6JRj mice or 1-year-old male mdx mice. 50 μL of 20 μM Naje Mossambica mossambica cardiotoxin (Sigma) was injected intramuscularly into the tibialis anterior (TA) muscle of recipient mice before transplantation. 24 h after CTX injection, equal number (1500) of freshly isolated MuSCs from donor mice were injected intramuscularly into the TA muscle. Recipient mice were sacrificed at 7 and 14 days after transplantation.
Histology. TA muscles were harvested from anesthetized mice, and immediately embedded in Thermo Scientific™ Shandon™ Cryomatrix™ and frozen in isopentane, cooled in liquid nitrogen, for 1 min before being transferred to dry ice and stored at −80° C. 8 μm cryosections were incubated in 4% PFA for 15 min, washed three times for 10 min with PBS, incubated for antigen retrieval in pH 6.0 citrate buffer for 10 min at 95° C. (for PAX7 antibody), counterstained with DAPI, laminin (1:200, Sigma), PAX7 (1:200, DSHB, University of Iowa), dystrophin (1:100, Spring Bioscience) or eMyHC (1:50, DSHB, University of Iowa), coupled with Alexa-488 or Alexa-568 fluorochromes (Life Technology) and mounted with Dako Mounting Medium. Microscopy images of fluorescence from muscle fibers were analyzed using the ImageJ software. […]

[4] = aged C57Bl/6JRj recipients of MuSCs from myriocin treated donors, 7 days
[5] = aged recipients of MuSCs from myriocin treated mice, 7 days after transplantation, change relative to baseline

CCCCCCC(=O)CCCCCCC=CCC(O)C(O)C(N)(CO)C(=O)O (centres unmarked) [myriocin, 2-Amino-3,4-dihydroxy-2-(hydroxymethyl)-14-oxoicos-6-enoic acid]
glucose tolerance (aged C57Bl/6JRj mice [1]): improved | lean body mass (aged C57Bl/6JRj mice [2]; myriocin 0.4 mg/kg i.p. 3 times per week, 5 months, EchoMRI before and after treatment): delayed age-dependent decline; also recorded: higher | cross-sectional area of muscle fibers (TA) (aged C57Bl/6JRj mice [2]; myriocin 5 months vs DMSO): larger | number of centralized nuclei in TA muscle (aged C57Bl/6JRj mice [2]; myriocin 5 months vs DMSO): reduced number | gastrocnemius and TA mass (aged C57Bl/6JRj mice [2]; myriocin 5 months vs DMSO treated controls): greater; also recorded: higher | inflammatory area of TA (aged C57Bl/6JRj mice [3]; aged C57Bl/6JRj recipients of MuSCs from myriocin treated donors, 7 and 14 days after injury): smaller | count of PAX7+ cells per field and per section (aged C57Bl/6JRj mice [3]; [4]): increased count | embryonic myosin heavy chain (eMyHC) positive area (aged C57Bl/6JRj mice [3]; [4]): higher | exercise capacity (maximal running distance) (aged C57Bl/6JRj mice [3]; [5]): improved | grip strength (aged C57Bl/6JRj mice [3]; [5]): improved | latency in rotarod test (aged C57Bl/6JRj mice [3]; [5]): increased latency
